IC50 and inhibition data for 15 compounds are collected here from ChEMBL document CHEMBL1139717, “Solid-phase combinatorial approach for the optimization of soluble epoxide hydrolase inhibitors” (Bioorg Med Chem Lett, 2006).

A word on the IC50: it is the midpoint of a concentration-inhibition curve. Broadly, the inhibition is the relative decrease from the control value, in per cent.

The target of experiment [1] is T1, Bifunctional epoxide hydrolase 2 (Homo sapiens, UniProt P34913).
T1 sequence (P34913 whole entry): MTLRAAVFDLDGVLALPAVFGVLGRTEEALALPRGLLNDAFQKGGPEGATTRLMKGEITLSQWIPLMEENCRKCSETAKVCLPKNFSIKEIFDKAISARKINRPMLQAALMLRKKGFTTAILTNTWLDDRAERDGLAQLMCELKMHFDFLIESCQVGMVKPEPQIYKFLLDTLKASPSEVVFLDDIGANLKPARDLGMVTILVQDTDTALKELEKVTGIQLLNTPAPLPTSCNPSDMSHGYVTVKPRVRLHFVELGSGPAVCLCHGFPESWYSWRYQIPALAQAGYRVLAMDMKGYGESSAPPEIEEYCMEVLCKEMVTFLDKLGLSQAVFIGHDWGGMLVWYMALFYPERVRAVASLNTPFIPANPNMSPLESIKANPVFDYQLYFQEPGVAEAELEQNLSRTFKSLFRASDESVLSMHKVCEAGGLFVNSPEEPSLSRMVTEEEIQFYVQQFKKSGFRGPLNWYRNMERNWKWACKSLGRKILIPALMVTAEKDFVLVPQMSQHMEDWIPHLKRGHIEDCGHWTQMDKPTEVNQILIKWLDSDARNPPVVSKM
The experiment is described as follows: Inhibition of human recombinant soluble epoxide hydrolase by kinetic fluorescent assay.

Experiment [2] addresses T2, Bifunctional epoxide hydrolase 2 (Homo sapiens) (UniProt P34913).
T2 sequence (whole entry): T1 sequence (P34913 whole entry)
The experiment is described as follows: Inhibition of human recombinant soluble epoxide hydrolase at 100 nM by end-point fluorescent assay.

Consider `Cc1cccc(C)c1NC(=O)N[C@H]1CC[C@@H](Oc2ccc(F)cc2)CC1`, for which, in experiment [1], the IC50 came out at 1200 nM. In addition, in experiment [2], the inhibition was found to be 4%.
For `O=C(Nc1ccc(C(F)(F)F)cc1)N[C@H]1CC[C@@H](Oc2ccc(F)cc2)CC1`, in that order: 1.2 nM and 82%.
As to `C[C@@H](NC(=O)NC12CC3CC(CC(C3)C1)C2)c1ccccc1`, the IC50 in experiment [1] came out at 100 nM. In addition, the inhibition in experiment [2] amounted to 10%.
Take `O=C(Nc1ccc(OC(F)(F)F)cc1)N[C@H]1CC[C@@H](Oc2ccc(F)cc2)CC1`: the inhibition in experiment [2] stood at 84%.
Regarding `O=C(NC1CCCCCC1)N[C@H]1CC[C@@H](Oc2ccc(F)cc2)CC1`, in experiment [1], the 50% inhibitory concentration (IC50) amounted to 0.5 nM. Moreover, the inhibition in experiment [2] was 87%.
For `COC(=O)c1ccc(NC(=O)N[C@H]2CC[C@@H](Oc3ccc(F)cc3)CC2)cc1`, in that order: 2.9 nM and 62%.
For `O=C(Nc1c(Cl)cccc1Cl)N[C@H]1CC[C@@H](Oc2ccc(F)cc2)CC1`, in that order: 940 nM and 1%.
For `O=C(Nc1ccc(Cl)cc1)N[C@H]1CC[C@@H](Oc2ccc(F)cc2)CC1`, in that order: 0.7 nM and 81%.
Consider `O=C(Nc1ccc(I)cc1)N[C@H]1CC[C@@H](Oc2ccc(F)cc2)CC1`, for which the IC50 in experiment [1] was 1 nM. The inhibition in experiment [2] is 76%.
`CC(C)c1cccc(C(C)C)c1NC(=O)N[C@H]1CC[C@@H](Oc2ccc(F)cc2)CC1`: the IC50 in experiment [1] came to 50500 nM. In addition, in experiment [2], the inhibition was found to be 5%.
For the compound `O=C(Nc1ccccc1OC(F)(F)F)N[C@H]1CC[C@@H](Oc2ccc(F)cc2)CC1`, the IC50 in experiment [1] came to 100 nM. For the same compound, the inhibition in experiment [2] amounted to 2%.
Consider `O=C(Nc1cccc(C(=O)O)c1)N[C@H]1CC[C@@H](Oc2ccc(F)cc2)CC1`, for which the IC50 in experiment [1] turned out to be 590 nM.
`COC(=O)c1cccc(NC(=O)N[C@H]2CC[C@@H](Oc3ccc(F)cc3)CC2)c1`: the IC50 in experiment [1] is 2 nM. Moreover, the inhibition in experiment [2] turned out to be 72%.
With `O=C(Nc1ccc(Br)cc1)N[C@H]1CC[C@@H](Oc2ccc(F)cc2)CC1`, the IC50 in experiment [1] was determined as 0.6 nM. The inhibition in experiment [2] came to 80%.
In the case of `CN(C)c1cccc2c(S(=O)(=O)NCCNC(=O)NC34CC5CC(CC(C5)C3)C4)cccc12`, the IC50 in experiment [1] stood at 30 nM. For the same compound, the inhibition in experiment [2] was found to be 19%.
